The source of these data is patent US20260193293A1, “PEPTIDES CAPABLE OF INHIBITING PROTEIN-PROTEIN INTERACTIONS AT GABAB1A SUBUNIT AND USES THEREOF” (UNIVERSITY OF COPENHAGEN, priority 2022, published 2026).

Like-named read-outs stand apart in the source and are kept apart here. Non-standard residues stand in square brackets, D forms with d. Residues, ends and D or L forms follow the SMILES beside them. Phe(4-tBu) = CC(C)(C)c1ccc(C[C@H](N)C(=O)O)cc1; Phe(4-NH2) = Nc1ccc(C[C@H](N)C(=O)O)cc1; Phe(4-F) = N[C@@H](Cc1ccc(F)cc1)C(=O)O; 2Nal = N[C@@H](Cc1ccc2ccccc2c1)C(=O)O

Series [1] has as its target Sushi domains (SD1/2) protein. The series is described as follows: Fluorescence polarization (FP) competition assay with AJAP-1probe, calculated Ki. The series is classed as binding. In short, it runs like this: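 Ki values were derived from IC50s (sigmoidal fits, ≥ triplicate), with probe Kd obtained by saturation titration of SD1/2. Peptides displaced a 25 nM TAMRA-labelled probe; polarization read at 530/580 nm in 1% BSA-containing PBS, pH 7.4, room temperature.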

Series [2] in a line: In vitro plasma stability. The conditions noted are these: for half-life / remaining at 48 h, 100 µM: human; for half-life: plasma.
Description: For time-course assay, 360 μL human plasma was pre-warmed up at 37° C. for 15 min and then spiked with 40 μL of tested peptides (1 mM in 1×PBS). […] Subsequently, 100 μL acetonitrile was added into and then samples were incubated overnight at −20° C. After that, all samples were centrifuged at 13,400 rpm for 10 min and the supernatant was filtered and then analyzed by LC-MS and UPLC (Waters). The area under the curve (AUC) was determined and normalized to the value of the first time point. The half-life (T1/2) was obtained by fitting the data to the one-phase decay equation in GraphPad Prism 9 and expressed as the mean of three individual experiments. For end-point assay, 108 μL human plasma was pre-warmed up at 37° C. for 15 min and then spiked with 12 μL of tested peptides (1 mM in 1×PBS).
Where [3] appears, read: CPP tagged peptides overview, SD1/2 binding affinity, mean ± SEM, n ≥ 3, read-out: Ki.
[4] abbreviates: Table 1, affinity maturation, mean ± SEM, n ≥ 3, read-out: Ki.
[5] abbreviates: Table 16, ncAAs incorporated peptides, read-out: Ki (nM) mean ± SEM.
[6] abbreviates: Table 14, CPPs tagged peptides, read-out: Ki (nM) mean ± SEM.

As to `CC[C@H](C)[C@H](NC(=O)[C@H](C)NC(=O)[C@H](Cc1c[nH]c2ccccc12)NC(=O)[C@@H]1CCCN1C(C)=O)C(=O)N[C@H](C(=O)N[C@@H](Cc1c[nH]c2ccccc12)C(=O)NCC(=O)N1CCC[C@H]1C(=O)N[C@H](C(=O)N[C@H](C(=O)N[C@@H](CO)C(=O)N[C@@H](CCCNC(=N)N)C(=O)N[C@@H](CCC(=O)O)C(=O)N[C@@H](CC(=O)O)C(N)=O)C(C)C)[C@@H](C)O)C(C)C` [PIANPWT, Ac-PWAIVWGPTVSRED-NH2] (Ac-PWAIVWGPTVSRED-NH2), the Ki in series [1] (purified peptides, read-out: Ki) was 476 ± 19 nM. The same molecule showed a half-life in series [2] of 16 h. For `CC[C@H](C)[C@H](NC(=O)[C@H](Cc1c[nH]c2ccccc12)NC(=O)[C@H](CC(=O)O)NC(=O)[C@H](CC(=O)O)NC(=O)[C@H](CC(=O)O)NC(=O)[C@H](CCC(=O)O)NC(C)=O)C(=O)N[C@@H](CC(=O)O)C(=O)N[C@@H](Cc1c[nH]c2ccccc12)C(=O)NCC(=O)N1CCC[C@H]1C(=O)N[C@H](C(=O)N[C@@H](CO)C(=O)N[C@@H](CC(=O)O)C(=O)N[C@@H](CC(=O)O)C(=O)N[C@@H](CC(=O)O)C(N)=O)[C@@H](C)O` [Peptide 17] (Ac-EDDDWIDWGPTSDDD-NH2), the Ki in series [1] (setting [3]) is 4 ± 0.3 nM; in series [1] (setting [4]) it was 4 ± 0.3 nM; in series [1] (Table 13, peptides for affinity maturation, read-out: Ki (nM) mean ± SEM), 4 ± 0.3 nM. Moreover, the half-life in series [2] is greater than 48 h. For `CC[C@H](C)[C@H](NC(=O)[C@H](Cc1ccc2ccccc2c1)NC(=O)[C@H](CC(=O)O)NC(=O)[C@H](CC(=O)O)NC(=O)[C@H](CC(=O)O)NC(=O)[C@H](CCC(=O)O)NC(C)=O)C(=O)N[C@@H](CC(=O)O)C(=O)N[C@@H](Cc1c[nH]c2ccccc12)C(=O)NCC(=O)N1CCC[C@H]1C(=O)N[C@H](C(=O)N[C@@H](CO)C(=O)N[C@@H](CC(=O)O)C(=O)N[C@@H](CC(=O)O)C(=O)N[C@@H](CC(=O)O)C(N)=O)[C@@H](C)O` [Peptide 21] (Ac-EDDD[2Nal]IDWGPTSDDD-NH2), the Ki in series [1] (setting [3]), in series [1] (setting [4]) and in series [1] (setting [5]) was 5.3 ± 0.2 nM throughout. The half-life in series [2] is greater than 48 h.

As to `CC[C@H](C)[C@H](NC(=O)[C@H](Cc1c[nH]c2ccccc12)NC(=O)[C@H](CC(=O)O)NC(=O)[C@H](CC(=O)O)NC(=O)[C@H](CC(=O)O)NC(=O)[C@H](CCC(=O)O)NC(=O)[C@H](CCCNC(=N)N)NC(=O)[C@H](CCCNC(=N)N)NC(=O)[C@H](CCCNC(=N)N)NC(C)=O)C(=O)N[C@@H](CC(=O)O)C(=O)N[C@@H](Cc1c[nH]c2ccccc12)C(=O)N[C@@H](Cc1ccc(O)cc1)C(=O)N[C@@H](CC(=O)O)C(=O)N[C@@H](CO)C(=O)N[C@@H](CC(=O)O)C(=O)N[C@@H](CC(=O)O)C(=O)N[C@@H](CC(=O)O)C(N)=O` [Peptide R3-16] (Ac-RRREDDDWIDWYDSDDD-NH2), the Ki in series [1] (setting [6]) is 6.4 ± 0.1 nM. This molecule gave a fraction remaining at 48 h, 100 µM in series [2] (human plasma) of roughly 80%. For `CC[C@H](C)[C@H](NC(=O)[C@H](Cc1c[nH]c2ccccc12)NC(=O)[C@H](CC(=O)O)NC(=O)[C@H](CC(=O)O)NC(=O)[C@H](CC(=O)O)NC(=O)[C@H](CCC(=O)O)NC(=O)[C@H](CCCNC(=N)N)NC(=O)[C@H](CCCNC(=N)N)NC(=O)[C@H](CCCNC(=N)N)NC(C)=O)C(=O)N[C@@H](CC(=O)O)C(=O)N[C@@H](Cc1c[nH]c2ccccc12)C(=O)NCC(=O)N1CCC[C@H]1C(=O)N[C@H](C(=O)N[C@@H](CO)C(=O)N[C@@H](CC(=O)O)C(=O)N[C@@H](CC(=O)O)C(=O)N[C@@H](CC(=O)O)C(N)=O)[C@@H](C)O` [Peptide R3-17] (Ac-RRREDDDWIDWGPTSDDD-NH2), in that order: 9 ± 0.2 nM and roughly 80%. In the case of `CC[C@H](C)[C@H](NC(=O)[C@H](Cc1ccc2ccccc2c1)NC(=O)[C@H](CC(=O)O)NC(=O)[C@H](CC(=O)O)NC(=O)[C@H](CC(=O)O)NC(=O)[C@H](CCC(=O)O)NC(=O)[C@H](CCCNC(=N)N)NC(=O)[C@H](CCCNC(=N)N)NC(=O)[C@H](CCCNC(=N)N)NC(=O)[C@H](CCCNC(=N)N)NC(C)=O)C(=O)N[C@@H](CC(=O)O)C(=O)N[C@@H](Cc1c[nH]c2ccccc12)C(=O)N[C@@H](Cc1ccc(O)cc1)C(=O)N[C@@H](CC(=O)O)C(=O)N[C@@H](CO)C(=O)N[C@@H](CC(=O)O)C(=O)N[C@@H](CC(=O)O)C(=O)N[C@@H](CC(=O)O)C(N)=O` [Peptide R4-20] (Ac-RRRREDDD[2Nal]IDWYDSDDD-NH2), the “fold higher affinity than 4R-16” value in series [1] (4R tagged peptides) is “about 2 fold”. Also, the figures for the Ki in series [1] (setting [3]) and in series [1] (setting [6]) were 12 ± 1 nM and 15 ± 1 nM, respectively. Further, in series [2] (human plasma, 37° C.), the “T1/2” value is on record as greater than 48 h. Further, the half-life in series [2] is greater than 48 h.

Turning to `CC[C@H](C)[C@H](NC(=O)[C@H](Cc1c[nH]c2ccccc12)NC(=O)[C@H](CC(=O)O)NC(=O)[C@H](CC(=O)O)NC(=O)[C@H](CC(=O)O)NC(=O)[C@H](CCC(=O)O)NC(=O)[C@H](CCCNC(=N)N)NC(=O)[C@H](CCCNC(=N)N)NC(=O)[C@H](CCCNC(=N)N)NC(=O)[C@H](CCC(N)=O)NC(=O)[C@H](CCCNC(=N)N)NC(=O)[C@H](CCCNC(=N)N)NC(=O)[C@H](CCCCN)NC(=O)[C@H](CCCCN)NC(=O)[C@H](CCCNC(=N)N)NC(=O)CNC(=O)[C@H](Cc1ccc(O)cc1)NC(C)=O)C(=O)N[C@@H](CC(=O)O)C(=O)N[C@@H](Cc1c[nH]c2ccccc12)C(=O)N[C@@H](Cc1ccc(O)cc1)C(=O)N[C@@H](CC(=O)O)C(=O)N[C@@H](CO)C(=O)N[C@@H](CC(=O)O)C(=O)N[C@@H](CC(=O)O)C(=O)N[C@@H](CC(=O)O)C(N)=O` [Tat-16] (Ac-YGRKKRRQRRREDDDWIDWYDSDDD-NH2), the Ki in series [1] (setting [3]) was 83 ± 1 nM; in series [1] (setting [6]) it was 83.4 ± 1 nM. For `CC[C@H](C)[C@H](NC(=O)[C@H](Cc1c[nH]c2ccccc12)NC(=O)[C@H](CC(=O)O)NC(=O)[C@H](CC(=O)O)NC(=O)[C@H](CC(=O)O)NC(=O)[C@H](CCC(=O)O)NC(=O)[C@H](CCCNC(=N)N)NC(=O)[C@H](CCCNC(=N)N)NC(=O)[C@H](CCCNC(=N)N)NC(=O)[C@H](CCC(N)=O)NC(=O)[C@H](CCCNC(=N)N)NC(=O)[C@H](CCCNC(=N)N)NC(=O)[C@H](CCCCN)NC(=O)[C@H](CCCCN)NC(=O)[C@H](CCCNC(=N)N)NC(=O)CNC(=O)[C@H](Cc1ccc(O)cc1)NC(C)=O)C(=O)N[C@@H](CC(=O)O)C(=O)N[C@@H](Cc1c[nH]c2ccccc12)C(=O)NCC(=O)N1CCC[C@H]1C(=O)N[C@H](C(=O)N[C@@H](CO)C(=O)N[C@@H](CC(=O)O)C(=O)N[C@@H](CC(=O)O)C(=O)N[C@@H](CC(=O)O)C(N)=O)[C@@H](C)O` [Tat-17] (Ac-YGRKKRRQRRREDDDWIDWGPTSDDD-NH2), in that order: 50 ± 2 nM and 49.9 ± 2 nM.

For the molecule `CC[C@H](C)[C@H](NC(=O)[C@H](Cc1ccccc1)NC(=O)[C@H](CCC(=O)O)NC(=O)[C@@H](NC(=O)[C@@H](NC(C)=O)C(C)C)[C@@H](C)O)C(=O)N[C@@H](C)C(=O)N[C@@H](Cc1c[nH]c2ccccc12)C(=O)NCC(=O)N1CCC[C@H]1C(=O)N[C@H](C(=O)NCC(=O)N[C@@H](CC(=O)O)C(=O)N[C@@H](CCC(=O)O)C(=O)N[C@@H](CC(=O)O)C(N)=O)[C@@H](C)O` [VTEFIAWGPTGDED], the Ki in series [1] (Table 11, deep mutational scanning validation variants of AJAP-1WT, read-out: Ki (nM) mean ± SEM) is 67 ± 1 nM. Regarding `CC[C@H](C)[C@H](NC(=O)[C@H](C)NC(=O)[C@H](Cc1c[nH]c2ccccc12)NC(=O)[C@@H](NC(C)=O)C(C)C)C(=O)N[C@H](C(=O)N[C@@H](Cc1c[nH]c2ccccc12)C(=O)NCC(=O)N1CCC[C@H]1C(=O)N[C@H](C(=O)N[C@H](C(=O)N[C@@H](CO)C(=O)N[C@@H](CCCNC(=N)N)C(=O)N[C@@H](CCC(=O)O)C(=O)N[C@@H](CC(=O)O)C(N)=O)C(C)C)[C@@H](C)O)C(C)C` [VWAIVWGPTVSRED] (Ac-VWAIVWGPTVSRED-NH2), the Ki in series [1] (Table 12, deep mutational scanning validation variants of PIANPWT, read-out: Ki (nM) mean ± SEM) is 412 ± 20 nM. For `CC[C@H](C)[C@H](NC(=O)[C@H](CC(=O)O)NC(=O)[C@H](CC(=O)O)NC(=O)[C@H](Cc1ccc(O)cc1)NC(=O)[C@H](CC(=O)O)NC(=O)[C@H](CC(=O)O)NC(=O)[C@H](CO)NC(=O)[C@H](CC(=O)O)NC(=O)[C@H](CCC(=O)O)NC(=O)[C@H](Cc1ccc2ccccc2c1)NC(=O)[C@H](CCCNC(=N)N)NC(=O)[C@H](CCCNC(=N)N)NC(=O)[C@H](CCCNC(=N)N)NC(=O)[C@H](CCCNC(=N)N)NC(C)=O)C(=O)N[C@@H](CC(=O)O)C(=O)N[C@@H](CC(=O)O)C(=O)N[C@@H](CC(=O)O)C(=O)N[C@@H](Cc1c[nH]c2ccccc12)C(N)=O` [reference compound] (Ac-RRRR[2Nal]EDSDDYDDIDDDW-NH2), the Ki in series [1] (setting [6]) was 143000 ± 2500 nM.

Consider “EDDS(Aphe)VWWGGADTD (Ac-EDDS[Phe(4-NH2)]VWWGGADTD-NH2)”, for which the Ki in series [1] (setting [5]) is 184 ± 3 nM. With “EDDS(Buphe)VWWGGADTD (Ac-EDDS[Phe(4-tBu)]VWWGGADTD-NH2)”, in series [1] (setting [5]), the Ki is 269 ± 3 nM. The same measure, in the same setting: under “EDDS(Fphe)VWWGGADTD (Ac-EDDS[Phe(4-F)]VWWGGADTD-NH2)” stands 117 ± 2 nM.

Take “EDDSDVWW(Aphe)GADTD (Ac-EDDSDVWW[Phe(4-NH2)]GADTD-NH2; SMILES CC(=O)N[C@@H](CCC(=O)O)C(=O)N[C@@H](CC(=O)O)C(=O)N[C@@H](CC(=O)O)C(=O)N[C@@H](CO)C(=O)N[C@@H](CC(=O)O)C(=O)N[C@H](C(=O)N[C@@H](Cc1c[nH]c2ccccc12)C(=O)N[C@@H](Cc1c[nH]c2ccccc12)C(=O)N[C@@H](Cc1ccc(N)cc1)C(=O)NCC(=O)N[C@@H](C)C(=O)N[C@@H](CC(=O)O)C(=O)N[C@H](C(=O)N[C@@H](CC(=O)O)C(N)=O)[C@@H](C)O)C(C)C)”: the Ki in series [1] (setting [5]) was 102 ± 1 nM. As to “ETEFlaWGPTGDED (Ac-ETEFI[dA]WGPTGDED-NH2)”, in series [1] (Table 8, in μM, read-out: Ki (nM) mean ± SEM), the Ki is greater than 6250 nM.

As usually defined, the Ki is the equilibrium dissociation constant of an inhibitor or competing ligand from its target. What is called half-life is the time needed for the level to fall by half in the phase considered. Read a low half-life as rapid decline. One may read the fraction remaining as what is left of the initial amount, in per cent. Higher therefore signals less turnover.
